Laboratory results published in patent US6001331A, “Method of imaging amyloid deposits” (Warner-Lambert Company, priority 1998, dated 1999).
Like-named read-outs stand apart in the source and are kept apart here.

Columns and labels:
[1] = biological target: T1, βA(1-40) amyloid aggregates (Homo sapiens, UniProt P05067); assay: Competition assay with Thioflavin T (ThT) for binding to β(1-40) amyloid aggregates, fluorescence 96-well plate
T1 construct: lyophilized β(1-40) protein powder (which may be purchased from BACHEM); purchased BACHEM
T1 sequence (P05067 672-711 limits assumed): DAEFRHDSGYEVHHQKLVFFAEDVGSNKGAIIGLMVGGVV
Text: Amyloid aggregates containing β(1-40) protein can also be made by methods well known to those skilled in the art. See, for example, Burdick D., Soreghan B., Kwon M., Kosmoski J., Knauer M., Henschen A., Yates J., Cotman C., and Glabe C. Assembly and aggregation properties of synthetic Alzheimer's A4/β amyloid peptide analogs. J. Biol. Chem., 267:546-554 (1992), which is hereby incorporated by reference. Briefly, lyophilized β(1-40) protein powder (which may be purchased from BACHEM) was dissolved at 10 mg/mL in hexafluoro-2-propanol and subsequently diluted to 500 μg/mL in 25 mM sodium phosphate buffer, pH 6 to induce the α-helix to β-sheet transition resulting in aggregate formation.
(§1) The ability of compounds of Formula I to compete with Thioflavin T (ThT) for binding to amyloid aggregates was measured using fluorescence in a 96-well fluorescence plate assay. As a compromise between sensitivity and signal and to facilitate comparisons between different amyloid fibrils, ThT is present at a concentration equal to the Kmapp of the particular amyloid fibril type and fibril concentrations yielding a similar fluorescence intensity are used. Insulin: 0.5 μM ThT, 2 μg per well. β(1-40): 20 μM ThT, 5 μg/well. All solutions are in 25 mM sodium phosphate buffer, pH 6.0, and the assay is performed at room temperature.
(§2) Using a multichannel pipettor, 100 μL of dilutions of the compound to be tested (0.001-30 μM final concentration in 3-fold steps) are placed in the bottom of Corning U-well polystyrene plates (Corning Company, Corning, N.Y.). 50 μL of ThT are then added to each well. The amyloid fibrils are then added to each well in a volume of 100 μL rapidly to mix the well contents. The plates are read within 5 to 30 minutes in a Millipore Cytofluor 2350 96-well fluorescence plate reader using an excitation filter of 440 nm (20 nm bandpass) and an emission filter of 485 nm (20 nm bandpass). ThT dye blanks were used to correct for the minimal fluorescence background which are subtracted from all data.
(§3) Results are expressed as % maximal fluorescence (no competing compound). […]

[2] = biological target: Insulin amyloid aggregates; assay: Competition assay with Thioflavin T (ThT) for binding to insulin amyloid aggregates, fluorescence 96-well plate; settings: 0.5 μM ThT, 2 μg per well fibrils, 25 mM sodium phosphate pH 6.0, room temperature
Procedure: Burke M. J. and Rougevie M. A., Cross-β Protein Structures. I. Insulin Fibrils. […] Briefly, lyophilized insulin protein powder dissolved at 10 mg/mL in 50 mM HCl was alternately heated to 95° C. and frozen in dry ice to form amyloid aggregates.
as §1
as §2, with “The plates are read within 5 to 30 minutes in a Millipore Cytofluor 2350 96-well fluorescence plate reader using an excitation filter of 440 nm (20 nm bandpass) and an emission filter of 485 nm (20 nm bandpass).” left out
as §3

[3] = 20 μM ThT, 5 μg/well fibrils, 25 mM sodium phosphate pH 6.0, room temperature, read-out: βA(1-40), IC50

SMILES	IC50 [1, 3]	IC50 [2]	IC50 [1]
COc1ccc2nc(/N=N/c3ccc(N(C)C)cc3)sc2c1 [Example 49, 2-[[4-(Dimethylamino)phenyl]azo]-6-methoxybenzothiazole]	3200 nM	700 nM	
CN(C)c1ccc(/C=C/c2sc3cc([N+](=O)[O-])ccc3[n+]2C)cc1 [Example 21, (E)-2-[2-(4-Dimethylaminophenyl)vinyl]-3-methyl-6-nitrobenzothiazol-3-ium toluene-4-sulfonate]	1000 nM	12 nM	
CCCCCCC[n+]1c(/C=C/c2ccc(N(C)C)cc2)sc2cc(OC)ccc21 [Example 20, (E)-2-[2-(4-Dimethylaminophenyl)vinyl]-3-heptyl-6-methoxybenzothiazol-3-ium iodide]	140 nM	40 nM	
Cc1ccc2nc(/C=C/c3ccc(N(C)C)cc3)sc2c1 [Example 4, (E)-Dimethyl-{4-[2-(6-methylbenzothiazol-2-yl)vinyl]phenyl}amine]		1500 nM	
CN(C)c1ccc(/C=C/c2sc3ccccc3[n+]2Cc2ccccc2)cc1 [Example 6, (E)-3-Benzyl-2-[2-(4-dimethylaminophenyl)vinyl]benzothiazol-3-ium bromide]		12 nM	110 nM
CN(C)c1ccc(/C=C/c2sc3ccccc3[n+]2CCC2CCCCC2)cc1 [Example 38, (E)-3-(2-Cyclohexylethyl)-2-[2-(4-dimethylaminophenyl)vinyl]benzothiazol-3-ium iodide]	120 nM	52 nM	
CN(C)c1ccc(/N=N/c2nc3ccc(Cl)cc3s2)cc1 [Example 50, 6-Chloro-2-[[4-(dimethylamino)phenyl]azo]benzothiazole]	1300 nM	1300 nM	
Cc1ccc2c(c1)sc(/C=C/c1ccc(N(C)C)cc1)[n+]2Cc1ccccc1 [Example 18, (E)-3-Benzyl-2-[2-(4-dimethylaminophenyl)vinyl]-6-methylbenzothiazol-3-ium bromide]		50 nM	130 nM
Cc1ccc2c(c1)sc(/C=C/c1ccc(N(C)C)cc1)[n+]2C [Example 17, (E)-2-[2-(4-Dimethylaminophenyl)vinyl]-3,6-dimethylbenzothiazol-3-ium iodide]	180 nM	6 nM	
CN(C)c1ccc(/C=C/c2sc3ccccc3[n+]2Cc2cccc(C(=O)c3ccccc3)c2)cc1 [Example 29, (E)-3-(3-Benzoylbenzyl)-2-[2-(4-dimethylaminophenyl)vinyl]benzothiazol-3-ium bromide]		130 nM	230 nM
COc1ccc2c(c1)sc(/C=C/c1ccc(N(C)C)c3ccccc13)[n+]2C [Example 41, (E)-2-[2-(4-Dimethylaminonaphthalen-1-yl)vinyl]-6-methoxy-3-methylbenzothiazol-3-ium iodide]	430 nM	26 nM	
CN(C)c1ccc(/C=C/c2sc3ccccc3[n+]2CCCCCOc2ccccc2)cc1 [Example 37, (E)-2-[2-(4-Dimethylaminophenyl)vinyl]-3-(5-phenoxypentyl)benzothiazol-3-ium iodide]	170 nM	80 nM	
CN(C)c1ccc(/C=C/c2sc3ccccc3[n+]2Cc2ccccc2-c2ccccc2)cc1 [Example 28, (E)-3-Biphenyl-2-ylmethyl-2-[2-(4-dimethylaminophenyl)vinyl]benzothiazol-3-ium bromide]		80 nM	
CN(C)c1ccc(/C=C/c2sc3ccccc3[n+]2CCCOCc2ccccc2)cc1 [Example 34, (E)-3-(3-Benzyloxypropyl)-2-[2-(4-dimethylaminophenyl)vinyl]benzothiazol-3-ium iodide]	140 nM	52 nM	
CN(C)c1ccc(/N=N/c2nc3ccccc3s2)cc1 [Example 47, [4-(Dimethylamino)phenylazo]benzothiazole]	22000 nM		
CCCCCCC[n+]1c(/C=C/c2ccc(N(C)C)c3ccccc23)sc2ccccc21 [Example 39, (E)-2-[2-(4-Dimethylaminonaphthalen-1-yl)vinyl]-3-heptylbenzothiazol-3-ium iodide]	160 nM	40 nM	
CN(C)c1ccc(/C=C/c2sc3ccccc3[n+]2Cc2ccc(-c3ccccc3)cc2)cc1 [Example 26, (E)-3-Biphenyl-4-ylmethyl-2-[2-(4-dimethylaminophenyl)vinyl]benzothiazol-3-ium iodide]	240 nM	34 nM	
COc1ccc2nc(/N=N/c3ccc(N(C)C)c4ccccc34)sc2c1 [Example 51, [4-(6-Methoxybenzothiazol-2-ylazo)naphthalen-1-yl]dimethylamine]	2500 nM	340 nM	
CCCCCCC[n+]1c(/C=C/c2ccc(N(CCCC)CCCC)cc2)sc2ccccc21 [Example 45, (E)-2-[2-(4-Dibutylaminophenyl)vinyl]-3-heptylbenzothiazol-3-ium iodide]	600 nM	90 nM	
CN(C)c1ccc(/C=C/c2sc3ccc(F)cc3[n+]2C)cc1 [Example 14, (E)-2-[2-(4-Dimethylaminophenyl)vinyl]-5-fluoro-3-methylbenzothiazol-3-ium iodide]	1000 nM		
CN(C)c1ccc(/C=C/c2nc3ccc(N(C)C)cc3s2)cc1 [Example 5, (E)-{2-[2-(4-Dimethylaminophenyl)vinyl]benzothiazol-6-yl}dimethylamine]	> 100000 nM		
CN(C)c1ccc(/C=C/c2nc3ccccc3s2)cc1 [Example 2, (E)-{4-[2-(Benzothiazol-2-yl)vinyl]phenyl}dimethylamine]	> 100000 nM		
CN(C)c1ccc(/C=C/c2sc3ccccc3[n+]2C)cc1 [Example 9, (E)-2-[2-(4-Dimethylaminophenyl)vinyl]-3-methylbenzothiazol-3-ium iodide]	1000 nM		
CCCCCCC[n+]1c(/C=C/c2ccc(N(C)C)cc2)sc2ccccc21 [Example 12, (E)-2-[2-(4-Dimethylaminophenyl)vinyl]-3-heptylbenzothiazol-3-ium iodide]	93 nM		
CN(C)c1ccc(/C=C/c2sc3ccccc3[n+]2CCCCCc2ccccc2)cc1 [Example 36, (E)-2-[2-(4-Dimethylaminophenyl)vinyl]-3-(5-phenylpentyl)benzothiazol-3-ium iodide]	170 nM		
CN(C)c1ccc(/C=C/c2sc3ccccc3[n+]2C/C=C/c2ccccc2)cc1 [Example 32, (E,E)-2-[2-(4-Dimethylaminophenyl)vinyl]-3-(3-phenylallyl)benzothiazol-3-ium bromide]		80 nM	
Cc1ccc2sc(/C=C/c3ccc(N(C)C)cc3)nc2c1 [Example 3, (E)-Dimethyl-{4-[2-(5-methylbenzothiazol-2-yl)vinyl]phenyl}amine]		900 nM	
COc1ccc2c(c1)sc(/C=C/c1ccc(N(C)C)cc1)[n+]2C [Example 19, (E)-2-[2-(4-Dimethylaminophenyl)vinyl]-6-methoxy-3-methylbenzothiazol-3-ium iodide]	300 nM		
CN(C)c1ccc(/C=C/c2sc3ccccc3[n+]2CCCCOc2ccccc2)cc1 [Example 35, (E)-2-[2-(4-Dimethylaminophenyl)vinyl]-3-(4-phenoxybutyl)benzothiazol-3-ium iodide]	170 nM		
CN(C)c1ccc(/N=N/c2nc3c(ccc4ccccc43)s2)c2ccccc12 [Example 52, Dimethyl[4-(naphtho[1,2-d]thiazol-2-ylazo)naphthalen-1-yl]amine]		16000 nM	
